PubChem BioAssay (NCI)
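Grown in 96-well plates, cells were treated for 48 hours with each compound at five concentrations. Insufficient inhibition: endpoint recorded as highest concentration tested. TGI: concentration producing complete growth inhibition.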

Assays:
Assay in all cases: inhibition of tumour cell growth, NCI panel, 48 h
OVCAR-4 ovarian = system: OVCAR-4 ovarian
HOP-92 NSCLC = system: HOP-92 NSCLC
UACC-62 melanoma = system: UACC-62 melanoma
NCI-H522 lung = system: NCI-H522 lung
MDA-MB-435 = system: MDA-MB-435
SK-MEL-28 melanoma = system: SK-MEL-28 melanoma
CCRF-CEM leukemia = system: CCRF-CEM leukemia
SN12C renal = system: SN12C renal
786-0 renal = system: 786-0 renal
SK-MEL-5 melanoma = system: SK-MEL-5 melanoma
UACC-257 melanoma = system: UACC-257 melanoma
KM12 colon = system: KM12 colon
TK-10 renal = system: TK-10 renal
HCT-15 colon = system: HCT-15 colon
OVCAR-3 ovarian = system: OVCAR-3 ovarian
IGROV1 ovarian = system: IGROV1 ovarian
SK-MEL-2 melanoma = system: SK-MEL-2 melanoma
HCT-116 colon = system: HCT-116 colon
MALME-3M melanoma = system: MALME-3M melanoma
BT-549 breast = system: BT-549 breast
SW-620 colon = system: SW-620 colon
CAKI-1 renal = system: CAKI-1 renal
LOX IMVI melanoma = system: LOX IMVI melanoma
SR leukemia = system: SR leukemia
NCI-H226 lung = system: NCI-H226 lung
RPMI-8226 leukemia = system: RPMI-8226 leukemia
A498 renal = system: A498 renal
SNB-19 CNS = system: SNB-19 CNS
PC-3 prostate = system: PC-3 prostate
T-47D breast = system: T-47D breast
COLO 205 colon = system: COLO 205 colon
HOP-62 NSCLC = system: HOP-62 NSCLC
NCI/ADR-RES ovarian = system: NCI/ADR-RES ovarian
HT29 colon = system: HT29 colon
MDA-MB-231 breast = system: MDA-MB-231 breast
MDA-N = system: MDA-N
ACHN renal = system: ACHN renal
HS 578T breast = system: HS 578T breast
K-562 leukemia = system: K-562 leukemia
SF-268 CNS = system: SF-268 CNS
EKVX NSCLC = system: EKVX NSCLC
OVCAR-8 ovarian = system: OVCAR-8 ovarian
U251 CNS = system: U251 CNS
SNB-75 CNS = system: SNB-75 CNS
MOLT-4 leukemia = system: MOLT-4 leukemia
UO-31 renal = system: UO-31 renal
DU-145 prostate = system: DU-145 prostate
NCI-H460 lung = system: NCI-H460 lung
SF-539 CNS = system: SF-539 CNS
SF-295 CNS = system: SF-295 CNS
A549 NSCLC = system: A549 NSCLC
M14 melanoma = system: M14 melanoma
HCC-2998 colon = system: HCC-2998 colon
SK-OV-3 ovarian = system: SK-OV-3 ovarian
OVCAR-5 ovarian = system: OVCAR-5 ovarian
RXF 393 renal = system: RXF 393 renal
HL-60(TB) leukemia = system: HL-60(TB) leukemia
NCI-H23 lung = system: NCI-H23 lung
MCF7 breast = system: MCF7 breast

O=C(/C=C/c1ccc2c(c1)OCO2)c1ccccc(=O)c1O
TGI (OVCAR-4 ovarian): > 100 µM
TGI (HOP-92 NSCLC): 72.9 µM
TGI (UACC-62 melanoma): 29.2 µM
TGI (NCI-H522 lung): 63.4 µM
TGI (MDA-MB-435): > 100 µM
TGI (SK-MEL-28 melanoma): 90.4 µM
TGI (CCRF-CEM leukemia): 3.93 µM
TGI (SN12C renal): > 100 µM
TGI (786-0 renal): > 100 µM
TGI (SK-MEL-5 melanoma): 23 µM
TGI (UACC-257 melanoma): 53.1 µM
TGI (KM12 colon): 26.1 µM
TGI (TK-10 renal): 43.5 µM
TGI (HCT-15 colon): > 100 µM
TGI (OVCAR-3 ovarian): > 100 µM
TGI (IGROV1 ovarian): 41.8 µM
TGI (SK-MEL-2 melanoma): 72.7 µM
TGI (HCT-116 colon): > 100 µM
TGI (MALME-3M melanoma): 60 µM
TGI (BT-549 breast): 47.6 µM
TGI (SW-620 colon): > 100 µM
TGI (CAKI-1 renal): 24.1 µM
TGI (LOX IMVI melanoma): > 100 µM
TGI (SR leukemia): > 100 µM
TGI (NCI-H226 lung): > 100 µM
TGI (RPMI-8226 leukemia): > 100 µM
TGI (A498 renal): > 100 µM
TGI (SNB-19 CNS): 51.8 µM
TGI (PC-3 prostate): > 100 µM
TGI (T-47D breast): 64.6 µM
TGI (COLO 205 colon): 20.2 µM
TGI (HOP-62 NSCLC): > 100 µM
TGI (NCI/ADR-RES ovarian): 14.2 µM
TGI (HT29 colon): 26.3 µM
TGI (MDA-MB-231 breast): > 100 µM
TGI (MDA-N): > 100 µM
TGI (ACHN renal): > 100 µM
TGI (HS 578T breast): > 100 µM
TGI (K-562 leukemia): > 100 µM
TGI (SF-268 CNS): 35.9 µM
TGI (EKVX NSCLC): > 100 µM
TGI (OVCAR-8 ovarian): 54.2 µM
TGI (U251 CNS): > 100 µM
TGI (SNB-75 CNS): 33.1 µM
TGI (MOLT-4 leukemia): > 100 µM
TGI (UO-31 renal): > 100 µM
TGI (DU-145 prostate): 46.7 µM
TGI (NCI-H460 lung): 41.7 µM

C(=N/Nc1ccccn1)/c1cccnc1
TGI (OVCAR-4 ovarian): > 100 µM
TGI (HOP-92 NSCLC): > 100 µM
TGI (UACC-62 melanoma): > 100 µM
TGI (NCI-H522 lung): > 100 µM
TGI (MDA-MB-435): > 100 µM
TGI (SK-MEL-28 melanoma): > 100 µM
TGI (SF-539 CNS): > 100 µM
TGI (CCRF-CEM leukemia): > 100 µM
TGI (SF-295 CNS): > 100 µM
TGI (SN12C renal): > 100 µM
TGI (786-0 renal): > 100 µM
TGI (SK-MEL-5 melanoma): > 100 µM
TGI (UACC-257 melanoma): > 100 µM
TGI (A549 NSCLC): > 100 µM
TGI (KM12 colon): > 100 µM
TGI (TK-10 renal): > 100 µM
TGI (HCT-15 colon): > 100 µM
TGI (OVCAR-3 ovarian): > 100 µM
TGI (IGROV1 ovarian): > 100 µM
TGI (SK-MEL-2 melanoma): > 100 µM
TGI (HCT-116 colon): > 100 µM
TGI (MALME-3M melanoma): > 100 µM
TGI (BT-549 breast): > 100 µM
TGI (M14 melanoma): > 100 µM
TGI (SW-620 colon): > 100 µM
TGI (CAKI-1 renal): > 100 µM
TGI (LOX IMVI melanoma): > 100 µM
TGI (NCI-H226 lung): > 100 µM
TGI (RPMI-8226 leukemia): > 100 µM
TGI (A498 renal): > 100 µM
TGI (HCC-2998 colon): > 100 µM
TGI (SNB-19 CNS): > 100 µM
TGI (PC-3 prostate): > 100 µM
TGI (T-47D breast): > 100 µM
TGI (COLO 205 colon): > 100 µM
TGI (SK-OV-3 ovarian): > 100 µM
TGI (HOP-62 NSCLC): > 100 µM
TGI (NCI/ADR-RES ovarian): > 100 µM
TGI (HT29 colon): > 100 µM
TGI (MDA-MB-231 breast): > 100 µM
TGI (MDA-N): > 100 µM
TGI (ACHN renal): > 100 µM
TGI (OVCAR-5 ovarian): > 100 µM
TGI (HS 578T breast): > 100 µM
TGI (K-562 leukemia): > 100 µM
TGI (SF-268 CNS): > 100 µM
TGI (EKVX NSCLC): > 100 µM
TGI (RXF 393 renal): > 100 µM
TGI (OVCAR-8 ovarian): > 100 µM
TGI (U251 CNS): > 100 µM
TGI (HL-60(TB) leukemia): > 100 µM
TGI (SNB-75 CNS): > 100 µM
TGI (NCI-H23 lung): > 100 µM
TGI (MOLT-4 leukemia): > 100 µM
TGI (MCF7 breast): > 100 µM
TGI (UO-31 renal): > 100 µM
TGI (DU-145 prostate): > 100 µM
TGI (NCI-H460 lung): > 100 µM
